Laboratory results published in ChEMBL document CHEMBL1201862, “PubChem BioAssay data set” (2004).
The source made the active and inactive calls.

Columns and labels:
Hexokinase HKDC1 = biological target: T1, Hexokinase HKDC1 (Homo sapiens, UniProt Q2TB90); test: HKDC1 hexokinase inhibitors, dose response, biochemical, W721R variant (AID 504729); format: functional
T1 sequence (Q2TB90 whole entry): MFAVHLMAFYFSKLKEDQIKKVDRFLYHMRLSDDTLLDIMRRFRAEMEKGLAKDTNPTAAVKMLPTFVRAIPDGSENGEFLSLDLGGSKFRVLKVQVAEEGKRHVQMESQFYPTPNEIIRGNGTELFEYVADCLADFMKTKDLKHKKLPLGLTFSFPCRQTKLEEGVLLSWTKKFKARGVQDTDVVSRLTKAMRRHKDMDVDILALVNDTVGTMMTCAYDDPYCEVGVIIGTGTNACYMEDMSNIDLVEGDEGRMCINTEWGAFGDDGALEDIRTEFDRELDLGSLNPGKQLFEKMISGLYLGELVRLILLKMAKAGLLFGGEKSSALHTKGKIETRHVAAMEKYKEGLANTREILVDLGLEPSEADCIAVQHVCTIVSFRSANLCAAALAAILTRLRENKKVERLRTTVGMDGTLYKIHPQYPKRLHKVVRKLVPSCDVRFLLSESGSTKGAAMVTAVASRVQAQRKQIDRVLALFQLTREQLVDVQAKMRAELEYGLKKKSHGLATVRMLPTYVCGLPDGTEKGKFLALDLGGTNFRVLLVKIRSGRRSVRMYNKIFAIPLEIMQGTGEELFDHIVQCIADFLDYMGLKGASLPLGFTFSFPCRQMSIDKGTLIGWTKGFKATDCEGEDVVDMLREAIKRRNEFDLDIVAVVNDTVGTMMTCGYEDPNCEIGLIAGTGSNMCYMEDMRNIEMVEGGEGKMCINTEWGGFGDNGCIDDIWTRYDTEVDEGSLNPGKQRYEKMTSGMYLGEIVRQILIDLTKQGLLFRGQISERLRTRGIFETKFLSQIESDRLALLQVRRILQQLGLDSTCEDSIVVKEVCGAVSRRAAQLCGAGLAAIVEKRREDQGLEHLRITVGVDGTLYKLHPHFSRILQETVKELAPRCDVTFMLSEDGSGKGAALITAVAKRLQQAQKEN

HEK293 = test: cells; format: functional, cell-based; details: Homo sapiens
[1] = biological target: RAC-alpha serine/threonine-protein kinase (Homo sapiens, UniProt P31749); format: functional;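 also: AKT1 affinity measured as one member of a kinome-wide kinase profiling panel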
RAC-alpha serine/threonine-protein kinase, sequence (P31749 whole entry): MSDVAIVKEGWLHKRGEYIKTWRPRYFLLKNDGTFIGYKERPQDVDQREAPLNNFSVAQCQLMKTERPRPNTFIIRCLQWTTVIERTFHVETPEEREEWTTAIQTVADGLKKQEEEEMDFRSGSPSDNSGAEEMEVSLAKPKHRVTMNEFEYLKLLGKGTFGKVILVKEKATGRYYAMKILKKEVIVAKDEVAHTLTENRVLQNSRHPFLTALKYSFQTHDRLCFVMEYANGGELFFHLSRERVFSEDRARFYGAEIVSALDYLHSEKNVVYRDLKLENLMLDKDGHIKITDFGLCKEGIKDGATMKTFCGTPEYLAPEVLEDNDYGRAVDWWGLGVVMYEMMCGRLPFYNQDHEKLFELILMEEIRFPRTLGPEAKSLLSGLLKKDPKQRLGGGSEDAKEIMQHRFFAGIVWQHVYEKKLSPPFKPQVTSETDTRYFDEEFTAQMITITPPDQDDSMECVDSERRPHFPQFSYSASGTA

[2] = biological target: Rho-associated protein kinase 2 (Homo sapiens, UniProt O75116); format: functional
[3] = biological target: Casein kinase I isoform gamma-1 (Homo sapiens, UniProt Q9HCP0); format: functional;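 also: measured as the CSNK1G1 member of a kinome profiling panel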
[4] = biological target: Dual specificity tyrosine-phosphorylation-regulated kinase 1A (Homo sapiens, UniProt Q13627); format: functional;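 also: measured against DYRK1A as one member of a broad kinome profiling panel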
[5] = biological target: Glycogen synthase kinase-3 alpha (Homo sapiens, UniProt P49840); format: functional;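 also: GSK3A result taken from a broad kinome-wide kinase panel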
Glycogen synthase kinase-3 alpha, sequence (P49840 whole entry, the tested form may be a part): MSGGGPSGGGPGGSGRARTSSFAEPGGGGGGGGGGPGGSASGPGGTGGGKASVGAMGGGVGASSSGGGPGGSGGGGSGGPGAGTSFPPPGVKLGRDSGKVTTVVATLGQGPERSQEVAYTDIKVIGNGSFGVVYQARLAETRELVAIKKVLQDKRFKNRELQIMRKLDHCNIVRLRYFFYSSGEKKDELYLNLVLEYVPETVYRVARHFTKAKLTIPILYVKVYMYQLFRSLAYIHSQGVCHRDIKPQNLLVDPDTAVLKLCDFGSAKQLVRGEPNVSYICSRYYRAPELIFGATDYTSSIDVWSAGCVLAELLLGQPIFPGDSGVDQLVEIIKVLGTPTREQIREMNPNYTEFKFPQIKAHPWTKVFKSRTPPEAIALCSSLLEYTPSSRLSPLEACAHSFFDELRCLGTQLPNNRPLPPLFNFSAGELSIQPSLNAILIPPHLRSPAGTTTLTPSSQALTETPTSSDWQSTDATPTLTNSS

[6] = biological target: PAS domain-containing serine/threonine-protein kinase (Homo sapiens, UniProt Q96RG2); format: functional
Focal adhesion kinase 1 = Focal adhesion kinase 1 (Homo sapiens, UniProt Q05397); format: functional;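 also: measured as one member of a kinome panel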
Focal adhesion kinase 1, sequence (Q05397 whole entry): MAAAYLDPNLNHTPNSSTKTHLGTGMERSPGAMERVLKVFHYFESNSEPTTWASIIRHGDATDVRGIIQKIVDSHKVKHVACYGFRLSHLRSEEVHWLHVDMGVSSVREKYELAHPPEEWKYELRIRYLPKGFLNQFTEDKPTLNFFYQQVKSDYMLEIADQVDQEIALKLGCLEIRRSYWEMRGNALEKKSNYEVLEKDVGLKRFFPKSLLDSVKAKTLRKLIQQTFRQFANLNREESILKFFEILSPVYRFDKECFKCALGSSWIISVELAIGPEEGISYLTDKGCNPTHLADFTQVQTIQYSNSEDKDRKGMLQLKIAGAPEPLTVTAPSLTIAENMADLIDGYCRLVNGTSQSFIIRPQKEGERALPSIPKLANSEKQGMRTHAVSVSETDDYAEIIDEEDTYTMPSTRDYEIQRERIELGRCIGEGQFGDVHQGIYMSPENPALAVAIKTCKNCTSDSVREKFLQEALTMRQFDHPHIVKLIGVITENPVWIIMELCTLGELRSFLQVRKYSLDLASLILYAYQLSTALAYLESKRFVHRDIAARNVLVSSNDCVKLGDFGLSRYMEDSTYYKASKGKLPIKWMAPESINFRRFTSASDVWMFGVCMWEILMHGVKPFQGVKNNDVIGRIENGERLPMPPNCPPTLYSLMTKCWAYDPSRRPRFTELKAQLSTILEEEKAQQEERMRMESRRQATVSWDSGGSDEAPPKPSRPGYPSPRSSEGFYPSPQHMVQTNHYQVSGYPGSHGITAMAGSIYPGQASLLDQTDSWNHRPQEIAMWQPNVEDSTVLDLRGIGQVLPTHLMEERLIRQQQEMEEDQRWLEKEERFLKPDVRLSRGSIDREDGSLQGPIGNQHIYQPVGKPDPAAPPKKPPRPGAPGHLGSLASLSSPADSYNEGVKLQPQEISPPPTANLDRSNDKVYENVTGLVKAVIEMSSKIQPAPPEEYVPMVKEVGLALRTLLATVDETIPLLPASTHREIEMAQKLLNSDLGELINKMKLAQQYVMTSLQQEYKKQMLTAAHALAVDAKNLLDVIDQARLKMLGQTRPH

[7] = biological target: Fibroblast growth factor receptor 3 (Homo sapiens, UniProt P22607); format: functional
[8] = biological target: Insulin-like growth factor 1 receptor (Homo sapiens, UniProt P08069); test: Navigating the Kinome. Panel member name: IGF1R; format: functional
[9] = biological target: Protein kinase C iota type (Homo sapiens, UniProt P41743); format: functional;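 also: measured within a kinome-wide kinase panel, PRKCI as panel member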
Protein kinase C iota type, sequence (P41743 whole entry): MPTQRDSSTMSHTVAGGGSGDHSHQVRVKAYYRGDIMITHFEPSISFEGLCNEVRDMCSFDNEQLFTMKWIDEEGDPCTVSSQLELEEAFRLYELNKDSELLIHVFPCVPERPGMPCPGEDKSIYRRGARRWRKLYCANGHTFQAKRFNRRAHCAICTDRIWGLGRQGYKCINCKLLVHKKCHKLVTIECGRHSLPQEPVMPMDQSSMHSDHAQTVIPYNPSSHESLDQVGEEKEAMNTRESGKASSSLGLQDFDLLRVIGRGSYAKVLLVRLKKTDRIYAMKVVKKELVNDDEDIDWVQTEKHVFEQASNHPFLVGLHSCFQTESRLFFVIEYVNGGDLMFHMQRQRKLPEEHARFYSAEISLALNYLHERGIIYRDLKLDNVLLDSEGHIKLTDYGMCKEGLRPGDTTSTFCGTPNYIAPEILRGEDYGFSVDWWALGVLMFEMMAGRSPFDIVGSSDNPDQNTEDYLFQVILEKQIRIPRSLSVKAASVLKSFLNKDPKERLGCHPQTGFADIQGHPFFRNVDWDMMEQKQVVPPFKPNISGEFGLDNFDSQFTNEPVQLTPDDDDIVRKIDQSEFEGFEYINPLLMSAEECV

[10] = biological target: Maternal embryonic leucine zipper kinase (Homo sapiens, UniProt Q14680); format: functional
Maternal embryonic leucine zipper kinase, sequence (Q14680 whole entry): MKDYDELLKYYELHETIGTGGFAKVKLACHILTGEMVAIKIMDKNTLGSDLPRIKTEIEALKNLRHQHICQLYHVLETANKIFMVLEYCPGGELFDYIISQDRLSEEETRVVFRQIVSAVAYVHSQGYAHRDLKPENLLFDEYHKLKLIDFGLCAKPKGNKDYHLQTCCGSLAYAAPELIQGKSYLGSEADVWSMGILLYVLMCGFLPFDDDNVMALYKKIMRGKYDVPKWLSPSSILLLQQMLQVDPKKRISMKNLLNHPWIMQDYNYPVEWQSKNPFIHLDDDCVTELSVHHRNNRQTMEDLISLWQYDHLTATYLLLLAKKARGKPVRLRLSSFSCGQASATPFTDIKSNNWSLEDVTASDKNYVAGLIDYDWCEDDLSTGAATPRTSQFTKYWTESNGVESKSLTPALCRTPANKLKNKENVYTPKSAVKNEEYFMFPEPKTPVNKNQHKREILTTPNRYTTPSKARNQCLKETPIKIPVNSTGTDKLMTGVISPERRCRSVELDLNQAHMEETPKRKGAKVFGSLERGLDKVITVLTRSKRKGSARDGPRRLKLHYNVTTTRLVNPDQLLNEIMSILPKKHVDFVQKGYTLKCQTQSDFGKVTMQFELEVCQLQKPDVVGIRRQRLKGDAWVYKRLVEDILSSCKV

Aurora kinase B = Aurora kinase B (Homo sapiens, UniProt Q96GD4); format: functional
Aurora kinase B, sequence (Q96GD4 whole entry): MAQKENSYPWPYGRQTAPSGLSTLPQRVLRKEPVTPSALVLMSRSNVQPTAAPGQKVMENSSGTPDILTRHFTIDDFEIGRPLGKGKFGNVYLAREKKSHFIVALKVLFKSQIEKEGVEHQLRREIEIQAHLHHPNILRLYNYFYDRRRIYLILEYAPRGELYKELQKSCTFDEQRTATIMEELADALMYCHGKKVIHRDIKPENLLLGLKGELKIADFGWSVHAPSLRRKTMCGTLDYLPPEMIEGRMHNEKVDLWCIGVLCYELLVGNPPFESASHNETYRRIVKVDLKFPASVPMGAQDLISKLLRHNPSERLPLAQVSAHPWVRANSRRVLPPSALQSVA

[11] = biological target: Serine/threonine-protein kinase pim-1 (Homo sapiens, UniProt P11309); format: functional
[12] = biological target: Calcium/calmodulin-dependent protein kinase type II subunit delta (Homo sapiens, UniProt Q13557); format: functional
Calcium/calmodulin-dependent protein kinase type II subunit delta, sequence (Q13557 whole entry): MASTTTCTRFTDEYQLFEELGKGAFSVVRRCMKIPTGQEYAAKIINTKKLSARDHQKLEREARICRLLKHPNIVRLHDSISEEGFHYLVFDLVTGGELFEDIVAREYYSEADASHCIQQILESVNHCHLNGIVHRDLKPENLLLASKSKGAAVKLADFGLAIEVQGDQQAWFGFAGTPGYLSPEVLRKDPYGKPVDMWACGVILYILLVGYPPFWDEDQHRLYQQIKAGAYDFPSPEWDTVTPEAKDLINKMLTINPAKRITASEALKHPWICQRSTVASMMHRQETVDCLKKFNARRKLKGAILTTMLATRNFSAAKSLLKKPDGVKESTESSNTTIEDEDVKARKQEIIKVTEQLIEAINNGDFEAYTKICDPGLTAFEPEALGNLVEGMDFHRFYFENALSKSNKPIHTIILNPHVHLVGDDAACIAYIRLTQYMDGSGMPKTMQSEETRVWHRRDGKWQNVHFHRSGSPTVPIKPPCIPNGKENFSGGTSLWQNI

[13] = biological target: Tyrosine-protein kinase FRK (Homo sapiens, UniProt P42685); format: functional;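 also: FRK tested as one member of a kinome panel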
Tyrosine-protein kinase FRK, sequence (P42685 whole entry, the tested form may be a part): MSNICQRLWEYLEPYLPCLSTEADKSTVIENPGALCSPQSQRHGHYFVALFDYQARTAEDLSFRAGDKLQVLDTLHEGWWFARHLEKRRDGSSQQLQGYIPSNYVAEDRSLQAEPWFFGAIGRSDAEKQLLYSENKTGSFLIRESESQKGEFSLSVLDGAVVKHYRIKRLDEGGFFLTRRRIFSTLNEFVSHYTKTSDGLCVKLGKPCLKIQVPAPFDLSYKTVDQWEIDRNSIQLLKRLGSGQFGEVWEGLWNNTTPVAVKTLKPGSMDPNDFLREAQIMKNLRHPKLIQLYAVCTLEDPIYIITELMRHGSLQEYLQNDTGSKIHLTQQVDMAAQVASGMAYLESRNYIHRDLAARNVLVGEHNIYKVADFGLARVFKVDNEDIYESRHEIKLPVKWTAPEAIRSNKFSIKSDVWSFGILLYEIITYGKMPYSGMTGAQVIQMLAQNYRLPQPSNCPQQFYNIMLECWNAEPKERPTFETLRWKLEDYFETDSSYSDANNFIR

[14] = biological target: T2, Oxysterols receptor LXR-beta (Homo sapiens, UniProt P55055); format: functional, cell-based;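 also: Cell-based luminescence dose-response assay of agonist activity at LXR, run as a confirmatory counterscreen to a daf-12 agonist screen; HEK293 cells with Gal4-LXR fusion and GAL4-driven luciferase reporter; agonist potency from rising luciferase signal of a Gal4-LXR reporter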
T2 sequence (P55055 whole entry): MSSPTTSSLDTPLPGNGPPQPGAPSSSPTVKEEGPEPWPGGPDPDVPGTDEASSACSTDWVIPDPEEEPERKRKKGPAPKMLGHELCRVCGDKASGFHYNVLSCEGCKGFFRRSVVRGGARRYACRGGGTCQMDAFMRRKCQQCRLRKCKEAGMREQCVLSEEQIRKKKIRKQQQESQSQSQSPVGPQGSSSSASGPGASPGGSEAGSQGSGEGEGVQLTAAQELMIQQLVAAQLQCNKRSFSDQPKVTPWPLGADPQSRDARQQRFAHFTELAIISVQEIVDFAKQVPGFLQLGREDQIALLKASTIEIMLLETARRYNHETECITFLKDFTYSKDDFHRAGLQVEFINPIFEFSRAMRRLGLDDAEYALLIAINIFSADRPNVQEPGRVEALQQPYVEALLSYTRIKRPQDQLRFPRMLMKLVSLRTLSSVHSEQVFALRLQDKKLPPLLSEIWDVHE

[15] = Luminescence-based cell-based high throughput dose response assay to identify activators of the DAF-12 from the parasite S. stercoralis (ssDAF-12).; format: functional
[16] = biological target: T3, Sphingosine 1-phosphate receptor 4 (Homo sapiens, UniProt O95977); test: Fluorescence dose response cell-based high throughput screening assay for antagonists of the Sphingosine 1-Phosphate Receptor 4 (S1P4). [Related pubchem assays: 1524 (Confirmation in triplicates.), 1510 (Primary screen.)]; format: functional
T3 sequence (O95977 whole entry): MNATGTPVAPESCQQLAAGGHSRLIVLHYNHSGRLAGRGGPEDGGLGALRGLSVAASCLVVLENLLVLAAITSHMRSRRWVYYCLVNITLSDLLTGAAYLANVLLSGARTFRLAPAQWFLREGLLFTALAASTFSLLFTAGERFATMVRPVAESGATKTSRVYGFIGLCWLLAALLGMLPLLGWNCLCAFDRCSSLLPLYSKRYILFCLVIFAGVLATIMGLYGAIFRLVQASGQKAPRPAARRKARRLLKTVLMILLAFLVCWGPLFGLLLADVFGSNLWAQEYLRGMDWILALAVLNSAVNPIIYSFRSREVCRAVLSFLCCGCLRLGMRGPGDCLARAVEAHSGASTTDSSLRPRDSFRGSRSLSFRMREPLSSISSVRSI

[17] = biological target: Delta-type opioid receptor (Homo sapiens, UniProt P41143); test: HTS Image-Based Screen for Antagonists of the DOR Receptor. [Related pubchem assays (depositor defined):AID1777, AID1785, AID1786, AID2133]; format: functional;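 also: U2OS cells expressing DOR stimulated with 100 nM SNC80 agonist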
Delta-type opioid receptor, sequence (P41143 whole entry): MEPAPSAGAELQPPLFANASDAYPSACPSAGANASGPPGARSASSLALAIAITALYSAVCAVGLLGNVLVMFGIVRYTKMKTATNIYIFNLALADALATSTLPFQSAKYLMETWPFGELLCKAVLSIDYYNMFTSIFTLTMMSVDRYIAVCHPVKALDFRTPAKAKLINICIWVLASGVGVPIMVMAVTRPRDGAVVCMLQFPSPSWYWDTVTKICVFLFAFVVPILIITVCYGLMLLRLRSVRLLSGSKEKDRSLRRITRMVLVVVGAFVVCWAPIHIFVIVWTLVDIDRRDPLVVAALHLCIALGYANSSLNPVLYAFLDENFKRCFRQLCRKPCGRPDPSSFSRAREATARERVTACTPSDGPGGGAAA

## Cc1ccc(C(=O)c2c(C)oc3c2C(=O)C(=O)c2ccccc2-3)cc1
Hexokinase HKDC1
  IC50: 6.94 µM (active)

## O=C1C(O)=C/C(=N\c2ccccc2O)c2ccccc21
HEK293
  IC50: > 20 µM (inactive)

## O=C1NC(=S)SC1=C1C(=O)Nc2ccc(Br)cc21
[1]
  Ki: > 7.94 µM (inactive)
[2]
  Ki: 0.794 µM (active)
[3]
  Ki: > 6.31 µM (inactive)
[4]
  Ki: 1 µM (active)
[5]
  Ki: 0.316 µM (active)
[6]
  Ki: > 1.58 µM (inactive)
Focal adhesion kinase 1
  Ki: > 1.58 µM (inactive)
[7]
  Ki: > 2 µM (inactive)
[8]
  Ki: > 2 µM (inactive)
[9]
  Ki: > 5.01 µM (inactive)
[10]
  Ki: 0.631 µM (active)
Aurora kinase B
  Ki: 2.51 µM (active)
[11]
  Ki: 0.0631 µM (active)
[12]
  Ki: 1.26 µM (active)
[13]
  Ki: > 2.51 µM (inactive)

## Cc1cnc(NC(=O)c2sc3ccccc3c2Cl)s1
[14]
  EC50: > 67.5 µM (inactive)
[15]
  IC50: > 67.5 µM (inactive)

## Cc1ccc(Nc2cc(C)nn2-c2nc(C)cc(O)n2)cc1
[16]
  IC50: 0.17 µM (active)
[17]
  IC50: > 32 µM (inactive)
